In the assay the test system is A. baumannii mutant AB522. Nature of the assay: Dose dependent resistance suppression (antibiotic MIC with compound) in AB522. Format: cell-based, Acinetobacter baumannii. Here is the method: There was no notable reduction in antibiotic MIC observed with either compound and both strains 522 and 1310. […] Even at the highest concentration, no potentiation was observed.
Day Cultures (6 h) were subcultured to 5×10^5 CFU/mL in cation adjusted Mueller-Hinton broth (CAMHB). […] One milliliter of the resulting solution was aliquoted into a separate culture tube and was dosed with antibiotic so that the resulting concentration was the highest desirable concentration to be tested. Bacteria treated with antibiotic alone were used as a control. Row one of a 96-well plate was filled with 200 μL of the antibiotic/compound solution, and the remaining rows were filled with 100 μL of the remaining 4 mL bacterial subculture. The wells in row one were mixed five times before 100 μL was transferred to the following row (row two). Row two was then mixed five times, and 100 μL was transferred to row three. This process was repeated until the second to last row had been reached. The last row is left unexposed to antibiotic in order to serve as a negative control. The antibiotic only treated bacteria was plated by aliquoting 200 μL of the treated bacteria into row one and filling the remaining rows with untreated bacteria from the original bacteria subculture. The rows were mixed in the same way as described above. Plates were covered with Glad Press n'Seal and were incubated under stationary conditions at 37° C. for 16 hours. MIC values were recorded as the lowest concentration at which no bacterial growth was observed. Fold reductions were determined by comparison of the compound treated wells with the antibiotic only treated control wells.

SMILES strings stand for the structures. Several values for one entry are separate records, joined by “and”; a condition that tells them apart may be missing. Identical values can stand only once.

On to `Nc1nc(-c2ccc(NC(=O)c3cc(Cl)cc(Cl)c3)cc2)c[nH]1` [Compound 1], for which the “Azithromycin MIC” value runs as follows: (compound Conc. Tested 2 (μM)) 8 µg/mL and 4 µg/mL; (compound Conc. Tested 3 (μM)) 4 µg/mL and 8 µg/mL; (compound Conc. Tested 4 (μM)) 4 µg/mL; (compound Conc. Tested 5 (μM)) 4 µg/mL. In addition, the “Clarithromycin MIC” value was found to be 1 µg/mL (compound Conc. Tested 2 (μM)), 1 µg/mL (compound Conc. Tested 3 (μM)), 1 µg/mL (compound Conc. Tested 4 (μM)) and 0.5 µg/mL (compound Conc. Tested 5 (μM)). Further, the “Erythromycin MIC” value (compound Conc. Tested 2 (μM)) was 2 µg/mL; the “Erythromycin MIC” value (compound Conc. Tested 3 (μM)) was 2 µg/mL and 4 µg/mL; the “Erythromycin MIC” value (compound Conc. Tested 4 (μM)) was 4 µg/mL and 2 µg/mL; the “Erythromycin MIC” value (compound Conc. Tested 5 (μM)) amounted to 2 µg/mL. For the same molecule, the “Vancomycin MIC” value reads like this: (compound Conc. Tested 2 (μM)) 64 µg/mL; (compound Conc. Tested 3 (μM)) 64 µg/mL; (compound Conc. Tested 4 (μM)) 32 µg/mL; (compound Conc. Tested 5 (μM)) 32 µg/mL.

Source of the values: patent publication US20210283107A1, “Methods to Expand the Spectrum of Gram-Positive Antibiotics” (NORTH CAROLINA STATE UNIVERSITY, priority 2016, published 2021).
